Source: patent US20070264319A1, “Transdermal Antiemesis Delivery System, Method and Composition Therefor” (priority 2004, published 2007)
Counter-ions that a name gives are not always drawn.

Legend:
[1] = water and normal saline at 20° C.; cited from earlier work
[2] = Solubility of granisetron base in penetration enhancers; assay type: physicochemical; conditions: thermodynamic from solid
Protocol: The incorporation of granisetron base in various penetration enhancers and solvents was determined by incrementally adding small amounts of the drug to about 100 ml of liquid penetration enhancer, and agitating the liquid mixture until the drug was no longer incorporated (i.e., saturation) to provide an apparently saturated liquid mixture at an ambient room temperature in the range of about 20 to about 25° C. Each of the saturated liquid mixtures was agitated by inverting for about 24 hours at ambient room temperature, the solution was centrifuged and its supernatant was diluted in HPLC mobile phase and assayed by the HPLC method as described in Example 2.

[3] = typical oral dose of about 1 to about 2 mg twice daily; cited from earlier work

Row | SMILES | solubility [1] | solubility at 24 h ([2]; oil or lipid, in Isopropyl myristate, about 20 to about 25° C.) [µg/mL] | solubility at 24 h ([2]; organic solvent or mixture, in BRIJ ® 30, about 20 to about 25° C.) [µg/mL] | solubility at 24 h ([2]; organic solvent or mixture, in DDAIP (free base), about 20 to about 25° C.) [µg/mL] | solubility at 24 h ([2]; organic solvent or mixture, in DGME (transcutol), about 20 to about 25° C.) [µg/mL] | solubility at 24 h ([2]; organic solvent or mixture, in Limonene, about 20 to about 25° C.) [µg/mL] | solubility at 24 h ([2]; organic solvent or mixture, in NMP, about 20 to about 25° C.) [µg/mL] | solubility at 24 h ([2]; organic solvent or mixture, in PEG-400, ambient room temperature about 20 to about 25° C.) [µg/mL] | solubility at 24 h ([2]; organic solvent or mixture, in Propylene glycol, about 20 to about 25° C.) [µg/mL] | solubility at 24 h ([2]; organic solvent or mixture, in SPAN ® 20, about 20 to about 25° C.) [µg/mL] | elimination half-life [3]
1 | CN1C2CCCC1CC(NC(=O)c1nn(C)c3ccccc13)C2 (centres unmarked) [Granisetron hydrochloride] | soluble in water and normal saline |  |  |  |  |  |  |  |  |  | 
2 | CN1C2CCCC1CC(NC(=O)c1nn(C)c3ccccc13)C2 (centres unmarked) [Granisetron] |  | 5.46 | 41.2 | 7.17 | 86.6 | 8.59 | 196 | 45.7 | 31.7 | 32.9 | about 7 hours
